Key:
[1] = test system: human multiple myeloma NCI-H929 xenograft tumors; assay: In vivo activity in combination with dexamethasone against NCI-H929 transplanted tumor; design: species or system NOD/SCID mice; conditions: each drug 3 mg/kg, QD; for Tumor inhibition rate TGI (%) / Average volume (mm^3) (Day 10) / Initial volume (mm^3): oral gavage, alone or combined; for Tumor inhibition rate TGI (%): 10 consecutive days; for Initial volume (mm^3): baseline
Experimental: In this example, human multiple myeloma NCI-H929 cell line was selected as the cell model to determine the inhibitory effects of compound and dexamethasone alone, as well as combination thereof on the growth of NOD/SCID mouse transplanted tumors of NCI-H929 tumor cells. The evaluation methods and results are described below.
(§1) Human multiple myeloma NCI-H929 cells were routinely cultured in RPMI1640 containing 10% fetal bovine serum at 37°C in a 5% CO2 incubator. After three passages in vitro, when the cells reached over 80% confluence and the required confluence rate, the cells were digested and harvested. After washing with PBS, the cells were counted and the cell concentration was adjusted to approximately 5 × 10^7 cells/mL. The cells were then placed in 4 mL centrifuge tubes on ice for later use.
(§2) Female NOD/SCID mice aged 4-5 weeks were selected and subcutaneously inoculated with NCI-H929 cells ectopically. The mice were held in a lateral position, the forelimb axilla was disinfected with 75% alcohol, and 100 µL of the cell suspension was injected subcutaneously into the axilla using a 1 mL syringe ([…]/100 µL).
After the tumors grew to 90-150 mm^3, the animals were randomly divided into groups, 8 mice in each group, and administered according to different administration methods as follows: • Model control group: Administered with the same volume of Vehicle (DMSO: 0.5% sodium carboxymethyl cellulose: distilled water = 1:1:8) daily by gavage; • Test group 1: administered with dexamethasone (Dex) solution at 3 mg/kg (mouse body weight) daily by gavage; • Test group 2: administered with I-4 solution at 3 mg/kg (mouse body weight) daily by gavage; • Test group 3: administered with I-8 solution at 3 mg/kg (mouse body weight) daily by gavage; • Test group 4: administered with dexamethasone at 3 mg/kg (mouse body weight) and 1-4 solution at 3 mg/kg (mouse body weight) daily by gavage; • Test group 5: administered with dexamethasone at 3 mg/kg (mouse body weight) and I-8 solution at 3 mg/kg (mouse body weight) daily by gavage;
(§3) The route of administration was oral gavage, and the administration frequency was once daily, for 10 consecutive days. The first day of administration was defined as Day 1 of the experiment. Tumor volume changes in mice were measured and recorded every two days. Tumor volume was measured using a vernier caliper, in which the major axis (a) and minor axis (b) of the tumor were measured, and the tumor volume was calculated as tumor volume V (mm^3) = a x b^2/2. After the experiment, the mice were dissected and the tumor weight was measured. The data were entered and statistically analyzed using GraphPad Prism 6 software. The data are expressed as mean ± SEM (Standard Error of Mean), and one-way ANOVA was used. P ≤ 0.05 was considered statistically significant.

[2] = test system: human multiple myeloma NCI-H929 xenograft tumors; assay: In vivo antitumor activity against NCI-H929 transplanted tumors; design: species or system NOD/SCID mice; conditions: QD; for growth of NCI-H929 transplanted tumors (in words): 3 mg/kg and 10 mg/kg; for Tumor inhibition rate TGI (%) / Average volume (mm^3) (Day 10) / Initial volume (mm^3): oral gavage; for Tumor inhibition rate TGI (%): 10 consecutive days; for Initial volume (mm^3): baseline
Experimental: In this example, the human multiple myeloma NCI-H929 cell line was used as the cell model. The inhibitory effects of compounds on the growth of NOD/SCID mouse transplanted tumors of NCI-H929 tumor cells were determined. The evaluation methods and results are described below.
as §1, §2
After the tumors grew to 90-150 mm^3, the animals were randomly divided into groups, 8 mice in each group, and administered according to different administration methods as follows: • Model control group: Administered with the same volume of Vehicle (DMSO: 0.5% sodium carboxymethyl cellulose: distilled water = 1:1:8) daily by gavage; • Control drug group 1: administered with pomalidomide solution at 10 mg/kg (mouse body weight) daily by gavage; • Control drug group 2: administered with CC-220 solution at 3 mg/kg (mouse body weight) daily by gavage; • Control drug group 3: administered with CC-220 solution at 10 mg/kg (mouse body weight) daily by gavage; • Experimental compound group 4: administered with compound I-4 solution at 3 mg/kg (mouse body weight) daily by gavage; • Experimental compound group 5: administered with compound I-4 solution at 10 mg/kg (mouse body weight) daily by gavage; • Experimental compound group 6: administered with compound I-8 solution at 3 mg/kg (mouse body weight) daily by gavage; • Experimental compound group 7: administered with compound I-8 solution at 10 mg/kg (mouse body weight) daily by gavage;
as §3

RPMI-8226 cells = assay: Antiproliferative activity, CCK-8 assay; type: cell-based; conditions: Homo sapiens, 144 hours incubation, CCK-8, absorbance at 450 nm

Structure (SMILES)	growth of NCI-H929 transplanted tumors (in words) [1]	Tumor inhibition rate TGI (%) [1] [%]	Average volume (mm^3) (Day 10) [1]	Initial volume (mm^3) [1] [mm^3]	growth of NCI-H929 transplanted tumors (in words) [2]	Tumor inhibition rate TGI (%) ([2]; 3 mg/kg)	Average volume (mm^3) (Day 10) ([2]; 3 mg/kg)	Initial volume (mm^3) ([2]; 3 mg/kg)	Tumor inhibition rate TGI (%) ([2]; 10 mg/kg)	Average volume (mm^3) (Day 10) ([2]; 10 mg/kg)	Initial volume (mm^3) ([2]; 10 mg/kg)	IC50 (RPMI-8226 cells) [µM]
CN1Cc2c(N)cccc2C(=O)N1C1CCC(=O)NC1=O (stereo not drawn) [I-4, 3-(5-amino-3-methyl-1-oxo-3,4-dihydrophthalazin-2(1H)-yl)piperidin-2,6-dione]	effectively inhibit the growth	68.03	689.9	183.9	significantly inhibited the growth	66.53	843.1	191.6	92.82	344.5	204.8	
CN1Cc2c(NCc3ccc(CN4CCN(c5ccc(C#N)c(F)c5)CC4)cc3)cccc2C(=O)N1C1CCC(=O)NC1=O (stereo not drawn) [I-8]	effectively inhibit the growth	82.64	458.1	183.3	significantly inhibited the growth	84.25	500.1	193.5	100.72	197.3	211.3	0.308
Nc1cccc2c1C(=O)N(C1CCC(=O)NC1=O)C2=O (stereo not drawn) [Pomalidomide, reference compound]									80.09	573.1	185.6	0.729
